These results are taken from PMC5983823, “Screening of Natural Product Derivatives Identifies Two Structurally Related Flavonoids as Potent Quorum Sensing Inhibitors against Gram-Negative Bacteria” (International Journal of Molecular Sciences, 2018).

Structures are written as SMILES. Read-outs that look alike come from different tables or passages of the source.

Data set [1] has as its system human lung (HL) epithelial cells. In words: Cytotoxicity testing (CellTiter Glo). The settings on record: 200 µM, 24 h exposure, positive control. It counts as cell-based. As for the experimental part: (§1) Human lung (HL) epithelial cells were grown in RPMI 1640 (Biowhittaker, Lonza, Viewers, Bornem, Belgium) supplemented with 10% inactivated fetal bovine serum (FBS), 2 mM L-glutamine and gentamycin 20 µg/mL, and mouse monocyte macrophage RAW 264.7 cells in DMEM medium supplemented with 10% FBS and 20 µg/mL gentamycin. Cells (3 × 10^5 cells/mL) were seeded into 96-microtiter well plates (Cellstar TC, Greiner Bio-One GmbH, Frickenhausen, Germany), 200 µL per well, and incubated at 37 °C in 5% CO2 24 h before exposure to the compounds. After the incubation, culture medium was discarded, the wells were washed with PBS, and the compound dilutions prepared in culture media were added as triplicates to a final volume of 200 µL. Usnic acid (200 µM, Sigma Aldrich, St. Louis, MO, USA) was included as positive control and DMSO (1%) as solvent control. Plates were incubated for additional 24 h. At the end of 24 h, media was removed, wells were washed twice with PBS and 100 µL of PBS was added. CellTiter Glo® reagent (Promega, Madison, WI, USA) was prepared according to manufacturer’s instructions, and 100 µL was added to the wells. The plates were shaken for two minutes and equilibrated at room temperature for 10 min prior to measuring the luminescence using Varioskan LUX multimode plate reader (Thermo Scientific, Vantaa, Finland). Inhibition of cell viability was calculated in relation to the untreated cells.
(In general: Cellular ATP, detected with luciferase, serves as a proxy for viable cell number.)

Data set [2] has as its system mouse monocyte macrophage (RAW 264.7) cells. As to the kind of experiment: Cytotoxicity testing (CellTiter Glo). It counts as cell-based. The settings on record: 200 µM, 24 h exposure, positive control. As for the experimental part:
as §1

Data set [3] concerns C. violaceum. The arrangement: method as in PMID 27626397. The settings on record: cited from earlier work.
The test system of data set [4] is C. violaceum ATCC 31532. As to the kind of experiment: Violacein extraction assay (QS-mediated violacein production). It counts as cell-based. The settings on record: Chromobacterium violaceum.
The test system of data set [5] is C. violaceum ATCC 31532. Described as above. It counts as cell-based, Chromobacterium violaceum. The settings on record: Chromobacterium violaceum, ATCC31532, 24 h, read-out: Inhibition-% of violacein production. As for the experimental part:
(§2) The initial screening of compound library was conducted using two strains of C. violaceum as model bacterium, and two assays (violacein extraction and resazurin staining) in parallel as recently optimized in [26]. For the screening assays, overnight cultures of C. violaceum were diluted in LB broth supplemented with yeast extract (LBY) (0.1% w/v, Sigma Aldrich, St. Louis, MO, USA). Culture of C. violaceum CV026 was further supplemented with 0.5 µM N-(β-ketocaproyl)-L-Homoserine lactone (3-O-C6-(L)-HSL, Cayman chemicals, Ann Arbor, MI, USA) to induce the violacein production. Bacteria (10^6 CFU/mL) was exposed to compounds (400 µM) in a total volume of 200 µL in 96-microtiter well plates (Nunc, Roskilde, Denmark), and incubated at 27 °C, with shaking at 200 rpm for 24 h. DMSO was added in untreated control wells and bacteria-free wells with only LBY were included controls. Additionally, autoinducer-free wells containing only bacteria were included in C. violaceum CV026 plates. Plates were prepared in duplicates. Quercetin dihydrate (Carl Roth GmbH, Karlsruhe, Germany) at 400 µM was used as positive control in violacein extraction assay, and azithromycin (Cayman chemicals, Ann Arbor, MI, USA) at 10 µM in viability assay. Both control compounds were prepared in DMSO. DMSO concentration was 2.5% throughout the experiments.
(§3) After incubation period of 24 h, plates were centrifuged (Allegra™ X-12R Benchtop centrifuge, Beckman Coulter Inc., Fullerton, CA, USA) at 3000 rpm for 10 min to precipitate the violacein. Supernatants were discarded from the wells by pipetting, and pellets were re-suspended in 200 μL of 96% ethanol by scraping and mixing followed by centrifugation (3000 rpm, 10 min). Thereafter, 100 μL of supernatants were transferred to sterile 96-microtiter well plates, and violacein was quantified by reading the optical density at 595 nm using Varioskan Flash. Inhibition of violacein production was expressed as inhibition percentages of the untreated biofilms (Equation (1)):Inhibition-% = [(untreated control OD595 − sample OD595)/(untreated control OD595 − media control OD595)] × 100%(1) in which untreated control = C. violaceum + DMSO, media control = LBY, and sample = C. violaceum treated with a compound. Later on, violacein extraction assay was also utilized for the determination of half inhibitory concentrations of the compounds.

Data set [6] relates to C. violaceum CV026. As to the kind of experiment: Violacein extraction assay (QS-mediated violacein production), mutant strain with exogenous autoinducer. The settings on record: Chromobacterium violaceum, CV026, 24 h, read-out: Inhibition-% of violacein production. It counts as cell-based, Chromobacterium violaceum. As for the experimental part:
as §2, §3

For data set [7], the system named is cancer cell lines. On the set-up: method as in ref 56 = [56]; 56. National Center for Biotechnology Information PubChem BioAssay Database Available online: https://pubchem.ncbi.nlm.nih.gov/bioassay/924 (accessed on 28 March 2018). The settings on record: PubChem Bioassay database ref 56; cited from earlier work.
The test system of data set [8] is Staphylococcus aureus biofilms. The arrangement: method as in PMID 24071942. The settings on record: cited from earlier work.

Regarding `CC(=O)c1c(O)c(C)c(O)c2c1OC1=CC(=O)C(C(C)=O)C(=O)C12C` (stereo not drawn) [Usnic acid, reference compound], the “Inhibition-% of cell viability” value amounted to 90.0 ± 4.7% in data set [1] and 98.5 ± 0.6% in data set [2].

A word on the inhibition: it is the drop in the measured response relative to a control, in per cent. `O=c1cc(-c2ccccc2)oc2cc(O)c(O)cc12` [Compound 916, 6,7-dihydroxy-2-phenylchromen-4-one]: in data set [3], the “Anti-QS activity class in earlier screening” value is “moderately active”. Moreover, in data set [4] (ATCC31532, read-out: Inhibition-% of violacein production), the inhibition at 40 µM worked out at 35.8 ± 1.1%. In addition, the inhibition at 400 µM was found to be 102% in data set [5] and 95.7% in data set [6]. The Anti-cancer activity result in data set [7] is “inhibition of cancer cell lines”. Further, the “Anti-biofilm activity against S. aureus” value in data set [8] was “preventing biofilm formation and by eradicating pre-formed biofilms”.

For the compound `O=c1c(O)c(-c2cccnc2)oc2ccc(Cl)cc12` [Compound 575, 6-chloro-3-hydroxy-2-(3-pyridyl)chromen-4-one], the inhibition at 40 µM in data set [4] (ATCC31532, 40 µM, C. violaceum ATCC 31532, mean ± SD of three independent tests, read-out: Inhibition-% of violacein production) is 60.9 ± 4.1%. In addition, the inhibition at 400 µM was 94.1% in data set [5] (primary screening, 400 µM, 24 h, C. violaceum ATCC 31532) and 94.3% in data set [6]. The Anti-cancer activity entry in data set [7] is listed as “not active”.
